Measurements reported in patent US7855214B2, “Fused cyclic systems useful as inhibitors of TEC family protein kinases” (Vertex Pharmaceuticals Incorporated, priority 2004, dated 2010).

Molecular target: T1, Itk (Homo sapiens, UniProt Q08881)
T1 sequence (Q08881 1-620): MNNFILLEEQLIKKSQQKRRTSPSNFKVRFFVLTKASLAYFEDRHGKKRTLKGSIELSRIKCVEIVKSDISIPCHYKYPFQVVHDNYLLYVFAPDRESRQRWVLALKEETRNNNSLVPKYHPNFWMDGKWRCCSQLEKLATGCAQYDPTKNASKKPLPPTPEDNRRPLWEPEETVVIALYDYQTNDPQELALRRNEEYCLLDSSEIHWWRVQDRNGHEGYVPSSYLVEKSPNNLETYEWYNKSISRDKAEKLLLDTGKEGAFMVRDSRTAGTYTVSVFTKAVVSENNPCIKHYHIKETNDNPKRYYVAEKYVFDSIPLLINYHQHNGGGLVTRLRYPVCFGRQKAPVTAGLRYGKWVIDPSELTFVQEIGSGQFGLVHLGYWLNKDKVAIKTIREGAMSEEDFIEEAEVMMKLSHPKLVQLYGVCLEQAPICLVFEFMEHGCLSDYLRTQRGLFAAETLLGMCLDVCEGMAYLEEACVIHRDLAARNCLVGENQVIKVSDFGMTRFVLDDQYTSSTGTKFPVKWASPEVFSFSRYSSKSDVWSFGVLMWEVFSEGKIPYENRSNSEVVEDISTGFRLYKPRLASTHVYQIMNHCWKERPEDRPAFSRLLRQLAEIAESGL
Assay: ITK Inhibition Assay (AlphaScreen)
Assay type: biochemical
Conditions: Ki(app); 100 μM ATP, 2 μM biotinylated SAM68 peptide, 30 nM Itk, 25° C.
Description: Compounds were screened for their ability to inhibit Itk using an AlphaScreen™ phosphotyrosine assay at Vertex Pharmaceuticals. Assays were carried out in a mixture of 20 mM MOPS (pH 7.0), 10 mM MgCl2, 0.1% BSA and 1 mM DTT. Final substrate concentrations in the assay were 100 μM ATP (Sigma Chemicals) and 2 μM peptide (Biotinylated SAM68 Δ332-443). Assays were carried out at 25° C. and in the presence of Itk (30 nM). An assay stock buffer solution was prepared containing all of the reagents listed above, with the exception of ATP and the test compound of interest. 25 μL of the stock solution was placed in each well of a 96 well plate followed by 1 μL of DMSO containing serial dilutions of the test compound (typically starting from a final concentration of 15 μM) in duplicate (final DMSO concentration 2%). The plate was preincubated for 10 minutes at 25° C. and the reaction initiated by addition of 25 μL ATP (final concentration 100 μM). Background counts were determined by the addition of 5 μL 500 mM EDTA to control wells containing assay stock buffer and DMSO prior to initiation with ATP.
The reaction was stopped after 30 minutes by diluting the reaction 225-fold into MOPS buffer (20 mM MOPS (pH 7.0), 1 mM DTT, 10 mM MgCl2, 0.1% BSA) containing 50 mM EDTA to bring the final concentration of Biotin-SAM68 to 9 nM.
AlphaScreen™ reagents were prepared according to the manufacturers instructions (AlphaScreen™ phosphotyrosine (P-Tyr-100) assay kit, PerkinElmer catalogue number 6760620C). Under subdued lighting, 20 μL of AlphaScreen™ reagents were placed in each well of a white half area 96 well plate (Corning Inc.—COSTAR 3693) with 30 μL of the stopped, diluted kinase reactions. Plates were incubated in the dark for 60 minutes prior to reading on a Fusion Alpha plate reader (PerkinElmer).
After removing mean background values for all of the data points, Ki(app) data were calculated from non-linear regression analysis using the Prism software package (GraphPad Prism version 3.0cx for Macintosh, GraphPad Software, San Diego Calif., USA).

Compound | Ki [µM]
Nc1ccc2c(=O)n3c(nc(Nc4cc(C5CC5)[nH]n4)c4ccccc43)nc2c1 [Compound I-1] | < 1
O=c1c2ccccc2nc2nc(Nc3cc(C4CC4)n[nH]3)c3ccccc3n12 [Compound I-2] | < 1
Cc1cc(Nc2nc3nc4cc(N)ccc4c(=O)n3c3ccccc23)[nH]n1 [Compound I-3] | < 1
CC(C)c1cc(Nc2nc3nc4ccccc4c(=O)n3c3ccccc23)[nH]n1 [Compound I-7] | < 1
O=c1c2ccccc2nc2nc(Nc3cc(C4CCCC4)n[nH]3)c3ccccc3n12 [Compound I-9] | < 1
COc1cc2nc3nc(Nc4cc(C5CC5)n[nH]4)c4ccccc4n3c(=O)c2cc1OC [Compound I-10] | < 1
COc1cc2nc3nc(Nc4cc(C5CCCC5)n[nH]4)c4ccccc4n3c(=O)c2cc1OC [Compound I-11] | < 1
CCCc1cc(Nc2nc3nc4ccccc4c(=O)n3c3ccccc23)n[nH]1 [Compound I-13] | < 1
COc1cc2nc3nc(Nc4cc(C(C)C)n[nH]4)c4ccccc4n3c(=O)c2cc1OC [Compound I-14] | < 1
O=c1c2ccccc2nc2nc(Nc3cc(C4CC4)n[nH]3)c3c(n12)CCC3 [Compound I-15] | < 1
CCOC(=O)Nc1ccc2c(=O)n3c(nc(Nc4cc(C5CC5)n[nH]4)c4ccccc43)nc2c1 [Compound I-16] | < 1
O=c1c2ccccc2nc2nc(Nc3cc(C4CC4)n[nH]3)c3c(n12)CCCC3 [Compound I-17] | < 1
O=c1c2ccccc2nc2nc(Nc3cc(CCCO)[nH]n3)c3ccccc3n12 [Compound I-20] | < 1
COCCCc1cc(Nc2nc3nc4ccccc4c(=O)n3c3ccccc23)n[nH]1 [Compound I-21] | < 1
